Experimental data published in patent US20100061928A1, “LABELLED ANALOGUES OF HALOBENZAMIDES AS RADIOPHARMACEUTICALS” (Institut National De La Sante et De La Recherche Medicale …, priority 2006, published 2010).
Structures can show the parent of a compound that is named as a salt.

What was measured:
tumour = assay: Dosimetry with regard to the tumour (MIRD programme, extrapolated to ^131I)
[1] = test system: grafted B16 F0 murine melanoma tumour; assay: Biodistribution of the ^125I-labelled molecules in the melanoma-bearing mouse (autoradiography of whole-body sections); conditions: for Biodistribution, radioactivity concentration in B 16, Mean: B 16 tumour
murine melanoma (B16 F0) = assay: Cytotoxicity, Hoechst test, B16 F0
[2] = test system: B16 F0 murine melanoma cells; assay: Colony forming technique: chemotherapeutic and radiotherapeutic (^125I) effects in vitro; format: cell-based
Description: The colony forming technique is involved, that is to say the growth of colonies of clones starting from tumour cells (B16 F0 murine melanoma cells) inoculated at a low concentration. This method makes it possible to visualize the cytotoxic and cytostatic properties of the compounds studied. The study was carried out in three parts:
The experiment is carried out on 6-well plates where 200 cells are inoculated in 2 ml of DMEM medium. After 20 hours, the medium is withdrawn and replaced with 2 ml of medium comprising the labelled compound at the desired concentration. This study is carried out in comparison with control wells comprising DMEM medium alone. […] The plates are incubated for 8 days and then the medium is withdrawn. The wells are rinsed with PBS and methanol is added for 3 minutes. Once attached, the cells are coloured with crystal violet with a contact time of 3 minutes. Subsequently, the colonies comprising more than 50 cells are counted using a dedicated counter. The growth of the treated colonies of cells is quantified in comparison with the controls. The activity of the product is expressed by a percentage of inhibition:
100−[(number of treated colonies)/(number of control colonies)]×100

[3] = test system: human fibroblast cell lines; assay: Cytotoxicity, Hoechst test, human fibroblasts; conditions: Homo sapiens, Fibroblast, 48 h, read-out: IC50 Fibroblast
[4] = Elimination of the molecules: cumulative urinary and faecal excretion 0-72 hours; format: in vivo, mouse
human melanoma (M4Beu) = assay: Cytotoxicity, Hoechst test, M4Beu; conditions: read-out: IC50 M4Beu; M4Beu human melanoma, 48 hours incubation, Hoechst test
[5] = 1 H after i.v., 125I-labelled, dose = 2.1 MBq
[6] = 3 H after i.v., 125I-labelled, dose = 2.1 MBq
[7] = 6 H after i.v., 125I-labelled, dose = 2.1 MBq
[8] = 24 H after i.v., 125I-labelled, dose = 2.1 MBq
[9] = 72 H after i.v., 125I-labelled, dose = 2.1 MBq

CCN(CC)CCNC(=O)c1cccc2nc3cc(I)ccc3nc12 [compound 151, N-(2-diethylaminoethyl)-7-iodophenazine-1-carboxamide dihydrochloride]
Effective period (tumour; extrapolated to 131I labelling): 30.0 h
Biological period (tumour; from biodistribution data): 35.5 hours
Biodistribution, radioactivity concentration in B 16, Mean [1, 5]: 20.96 % ID/g
Biodistribution, radioactivity concentration in B 16, Mean [1, 6]: 23.65 % ID/g
Biodistribution, radioactivity concentration in B 16, Mean [1, 7]: 27.70 % ID/g
Biodistribution, radioactivity concentration in B 16, Mean [1, 8]: 11.47 % ID/g
Biodistribution, radioactivity concentration in B 16, Mean [1, 9]: 6.26 % ID/g
Biodistribution, radioactivity concentration in GB, Mean ([1]; GB, 3 H after i.v., 125I-labelled, dose = 2.1 MBq): 107.29 % ID/g
Biodistribution, radioactivity concentration in Ic, Mean [1, 5]: 56.33 % ID/g
Biodistribution, radioactivity concentration in Ic, Mean [1, 6]: 52.72 % ID/g
Biodistribution, radioactivity concentration in Ic, Mean [1, 7]: 52.58 % ID/g
Biodistribution, radioactivity concentration in Ic, Mean [1, 8]: 2.30 % ID/g
Biodistribution, radioactivity concentration in Sc, Mean [1, 5]: 11.25 % ID/g
Biodistribution, radioactivity concentration in Sc, Mean [1, 6]: 14.52 % ID/g
Biodistribution, radioactivity concentration in Sc, Mean [1, 7]: 16.09 % ID/g
Biodistribution, radioactivity concentration in Sc, Mean [1, 8]: 2.95 % ID/g
tumour concentration, times higher than with BZA ([1]; at 72 hours (FIG. 1B)): 8 times
Biodistribution, radioactivity concentration in blood, Mean [1, 5]: 3.92 % ID/g
Biodistribution, radioactivity concentration in blood, Mean [1, 6]: 1.39 % ID/g
Biodistribution, radioactivity concentration in brain, Mean [1, 5]: 1.79 % ID/g
Biodistribution, radioactivity concentration in brain, Mean [1, 6]: 0.44 % ID/g
tumour concentration, % of the injected dose per gram of tumour ([1]; from the first hour): 21 % ID/g
Biodistribution, radioactivity concentration in kidney, Mean [1, 5]: 9.45 % ID/g
Biodistribution, radioactivity concentration in kidney, Mean [1, 6]: 3.42 % ID/g
Biodistribution, radioactivity concentration in kidney, Mean [1, 7]: 1.55 % ID/g
Biodistribution, radioactivity concentration in liver, Mean [1, 5]: 10.94 % ID/g
Biodistribution, radioactivity concentration in liver, Mean [1, 6]: 5.83 % ID/g
Biodistribution, radioactivity concentration in liver, Mean [1, 7]: 4.04 % ID/g
Biodistribution, radioactivity concentration in liver, Mean [1, 8]: 1.44 % ID/g
Biodistribution, radioactivity concentration in lungs, Mean [1, 5]: 8.77 % ID/g
Biodistribution, radioactivity concentration in lungs, Mean [1, 6]: 2.84 % ID/g
Biodistribution, radioactivity concentration in lungs, Mean [1, 7]: 1.40 % ID/g
Biodistribution, radioactivity concentration in muscle, Mean [1, 5]: 1.27 % ID/g
Biodistribution, radioactivity concentration in muscle, Mean [1, 6]: 0.45 % ID/g
Biodistribution, radioactivity concentration in muscle, Mean [1, 7]: 0.42 % ID/g
Biodistribution, radioactivity concentration in pancreas, Mean [1, 5]: 6.63 % ID/g
Biodistribution, radioactivity concentration in pancreas, Mean [1, 6]: 1.53 % ID/g
Biodistribution, radioactivity concentration in spleen, Mean [1, 5]: 14.02 % ID/g
Biodistribution, radioactivity concentration in spleen, Mean [1, 6]: 13.84 % ID/g
Biodistribution, radioactivity concentration in spleen, Mean [1, 7]: 18.88 % ID/g
Biodistribution, radioactivity concentration in thyroid, Mean [1, 6]: 8.63 % ID/g
Biodistribution, radioactivity concentration in thyroid, Mean [1, 7]: 54.71 % ID/g
Biodistribution, radioactivity concentration in thyroid, Mean [1, 8]: 214.42 % ID/g
Biodistribution, radioactivity concentration in thyroid, Mean [1, 9]: 12.74 % ID/g
Biodistribution, radioactivity concentration in uvea, Mean [1, 5]: 14.19 % ID/g
Biodistribution, radioactivity concentration in uvea, Mean [1, 6]: 17.49 % ID/g
Biodistribution, radioactivity concentration in uvea, Mean [1, 7]: 14.74 % ID/g
Biodistribution, radioactivity concentration in uvea, Mean [1, 8]: 11.64 % ID/g
Biodistribution, radioactivity concentration in uvea, Mean [1, 9]: 11.19 % ID/g
IC50 (murine melanoma (B16 F0); read-out: IC50 B16, B16 F0 murine melanoma, 48 hours incubation, Hoechst test): 3.6 µM
cytotoxic activity compared with DACA (in words) (murine melanoma (B16 F0); various cell lines studied (B16 F0, M4Beu, fibroblasts)): activities similar to that of DACA
inhibition at 2 µM ([2]; Mus musculus, B16F0, cold compound, 2 μM, colony forming, 48 hours contact, read-out: % of inhibition (Chemotherapeutic effects alone)): 21%
inhibition at 4 µM ([2]; Mus musculus, B16F0, cold compound, 4 μM, colony forming, 48 hours contact, read-out: % of inhibition (Chemotherapeutic effects alone)): 74%
inhibition at 6 µM ([2]; Mus musculus, B16F0, cold compound, 6 μM, colony forming, 48 hours contact, read-out: % of inhibition (Chemotherapeutic effects alone)): 87%
inhibition at 8 µM ([2]; Mus musculus, B16F0, cold compound, 8 μM, colony forming, 48 hours contact, read-out: % of inhibition (Chemotherapeutic effects alone)): 97%
inhibition at 10 µM ([2]; Mus musculus, B16F0, cold compound, 10 μM, colony forming, 48 hours contact, read-out: % of inhibition (Chemotherapeutic effects alone)): 100%
Cumulative effect (% inhib) (Radiotherapeutic and chemotherapeutic effects) ([2]; cold compound 151 at 2 μM with 0 activity of [125I]-151): 19%
IC50 [3]: 2.7 µM
Faecal elimination 0-72 hours (Faeces) ([4]; cumulative excretion 0-72 hours, faeces, mice in metabolic cages): 61%
Urinary and faecal elimination 0-72 hours (Total) ([4]; cumulative excretion 0-72 hours, urine + faeces): 66.8%
Urinary elimination 0-72 hours (Urine) ([4]; cumulative excretion 0-72 hours, urine, mice in metabolic cages): 5.8%
elimination route (in words) ([4]; urinary versus faecal, 0-72 hours): faecal route predominates
IC50 (human melanoma (M4Beu)): 3.6 µM
